# Test results from US9745283B2, “Uracil derivatives as AXL and c-MET kinase inhibitors” (priority 2011, dated 2017).
# How the values were obtained:
# [1] = biological target: recombinant human baculovirus-expressed AXL (Homo sapiens (Human), UniProt P30530); experiment: AXL Kinase Assay (HTRF KinEASE); assay type: biochemical; conditions: average of two or more determinations
# Protocol: The ability of compounds to inhibit the kinase activity of recombinant human baculovirus-expressed AXL was measured by homogeneous TRF (HTRF) using Cisbio's KinEASE™ assay system in white 384-well Optiplates. Assay buffer contained 1 mM DTT, 2 mM MnCl2, 2% DMSO, […] supplement enzymatic buffer, and 1× enzymatic buffer. A 2× concentration of tyrosine kinase (TK) substrate-biotin/ATP mixture made in assay buffer was added to plates at 10 μL/well using the Multidrop Combi (Thermo Fisher Scientific, Waltham, Mass.). […] Compounds (100 nL), diluted in 100% DMSO on the Biomek FX, (Beckman Coulter, Inc., Brea, Calif.), were transferred to the assay plates using the Biomek FX pintool (2.5% final DMSO in assay). […] Plates were sealed, briefly shaken and incubated at 25° C. for 30 minutes. […] Plates were sealed, briefly shaken and incubated at 25° C. for 1 hour.
# Inhibition curves for compounds were generated by plotting percent control activity versus log 10 of the concentration of compound. IC50 values were calculated by nonlinear regression using the sigmoidal dose-response (variable slope) equation in GraphPad Prism as follows: y=bottom+(top−bottom)/(1+10(log IC50−x)*Hill Slope) where y is the % kinase activity at a given concentration of compound, x is the logarithm of the concentration of compound, bottom is the % of control kinase activity at the highest compound concentration tested, and top is the % of control kinase activity at the lowest compound concentration examined. The values for bottom and top were fixed at 0 and 100, respectively.
# [2] = biological target: recombinant human baculovirus-expressed cMET (Homo sapiens (Human), UniProt P08581); experiment: C-MET Kinase Assay (HTRF KinEASE); assay type: biochemical; conditions: average of two or more determinations; read-out: c-MET IC50
# How it was run: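 HTRF KinEASE format with recombinant human baculovirus-expressed cMET at 8 ng/mL, biotinylated peptide at 0.1 μM and ATP at 0.02 μM. IC50 came from percent control activity versus log concentration, fitted by nonlinear regression to a variable-slope sigmoidal equation with bottom fixed at 0 and top at 100.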
IC50 [1],IC50 [2],SMILES
< 10 nM,10 to 100 nM,"COc1cc2nccc(Oc3ccc(NC(=O)c4cn(CCN(C)C)c(=O)n(-c5ccc(F)cc5)c4=O)cc3F)c2cc1OC [Example 20, 1-(2-Dimethylaminoethyl)-3-(4-fluorophenyl)-2,4-dioxo-1,2,3,4-tetrahydropyrimidine-5-carboxylic acid [4-(6,7-dimethoxyquinolin-4-yloxy)-3-fluorophenyl]-amide]"
< 10 nM,10 to 100 nM,"COc1cc2nccc(Oc3ccc(NC(=O)c4cn(CCCOCc5ccccc5)c(=O)n(-c5ccc(F)cc5)c4=O)cc3)c2cc1OC [Example 21, 1-(3-Benzyloxypropyl)-3-(4-fluorophenyl)-2,4-dioxo-1,2,3,4-tetrahydropyrimidine-5-carboxylic acid [4-(6,7-dimethoxyquinolin-4-yloxy)phenyl]-amide]"
< 10 nM,10 to 100 nM,"COc1cc2nccc(Oc3ccc(NC(=O)c4cn(CCCOCc5ccccc5)c(=O)n(-c5ccc(F)cc5)c4=O)c(F)c3)c2cc1OC [Example 22, 1-(3-Benzyloxypropyl)-3-(4-fluorophenyl)-2,4-dioxo-1,2,3,4-tetrahydropyrimidine-5-carboxylic acid [4-(6,7-dimethoxyquinolin-4-yloxy)-2-fluorophenyl]-amide]"
< 10 nM,< 10 nM,"COc1cc2nccc(Oc3ccc(NC(=O)c4cn(C(C)C)c(=O)n(-c5ccc(F)cc5)c4=O)cc3)c2cc1OC [Example 23, 3-(4-Fluorophenyl)-1-isopropyl-2,4-dioxo-1,2,3,4-tetrahydropyrimidine-5-carboxylic acid [4-(6,7-dimethoxyquinolin-4-yloxy)phenyl]-amide]"
< 10 nM,< 10 nM,"COc1cc2nccc(Oc3ccc(NC(=O)c4c[nH]c(=O)n(-c5ccc(F)cc5)c4=O)cc3)c2cc1OC [Example 24, 3-(4-Fluorophenyl)-2,4-dioxo-1,2,3,4-tetrahydropyrimidine-5-carboxylic acid [4-(6,7-dimethoxyquinolin-4-yloxy)phenyl]-amide]"
< 10 nM,10 to 100 nM,"COc1cc2nccc(Oc3ccc(NC(=O)c4cn(CCN5CCCC5)c(=O)n(-c5ccc(F)cc5)c4=O)cc3F)c2cc1OC [Example 26, 3-(4-Fluorophenyl)-2,4-dioxo-1-(2-pyrrolidin-1-yl-ethyl)-1,2,3,4-tetrahydropyrimidine-5-carboxylic acid [4-(6,7-dimethoxyquinolin-4-yloxy)-3-fluorophenyl]-amide]"
< 10 nM,10 to 100 nM,"COc1cc2nccc(Oc3ccc(NC(=O)c4cn(CCN5CCCCC5)c(=O)n(-c5ccc(F)cc5)c4=O)cc3F)c2cc1OC [Example 27, 3-(4-Fluorophenyl)-2,4-dioxo-1-(2-piperidin-1-yl-ethyl)-1,2,3,4-tetrahydropyrimidine-5-carboxylic acid [4-(6,7-dimethoxyquinolin-4-yloxy)-3-fluorophenyl]-amide]"
< 10 nM,< 10 nM,"CCn1cc(C(=O)Nc2ccc(Oc3ccnc4cc(OC)c(OC)cc34)cc2)c(=O)n(-c2ccc(F)cc2)c1=O [Example 28, 1-Ethyl-3-(4-fluorophenyl)-2,4-dioxo-1,2,3,4-tetrahydropyrimidine-5-carboxylic acid [4-(6,7-dimethoxyquinolin-4-yloxy)-phenyl]-amide]"
< 10 nM,10 to 100 nM,"COc1cc2nccc(Oc3ccc(NC(=O)c4cn(C5CCC5)c(=O)n(-c5ccc(F)cc5)c4=O)cc3F)c2cc1OC [Example 29, 1-Cyclobutyl-3-(4-fluorophenyl)-2,4-dioxo-1,2,3,4-tetrahydropyrimidine-5-carboxylic acid [4-(6,7-dimethoxyquinolin-4-yloxy)-3-fluorophenyl]-amide]"
< 10 nM,10 to 100 nM,"COc1cc2nccc(Oc3ccc(NC(=O)c4cn(C5CCOCC5)c(=O)n(-c5ccc(F)cc5)c4=O)cc3F)c2cc1OC [Example 30, 3-(4-Fluorophenyl)-2,4-dioxo-1-(tetrahydropyran-4-yl)-1,2,3,4-tetrahydropyrimidine-5-carboxylic acid [4-(6,7-dimethoxyquinolin-4-yloxy)-3-fluorophenyl]-amide]"
< 10 nM,10 to 100 nM,"CCn1cc(C(=O)Nc2ccc(Oc3ccnc4cc(OC)c(OC)cc34)cn2)c(=O)n(-c2ccc(F)cc2)c1=O [Example 31, 1-Ethyl-3-(4-fluorophenyl)-2,4-dioxo-1,2,3,4-tetrahydropyrimidine-5-carboxylic acid [5-(6,7-dimethoxyquinolin-4-yloxy)-pyridin-2-yl]-amide]"
< 10 nM,< 10 nM,"CCn1c(C)c(C(=O)Nc2ccc(Oc3ccnc4cc(OC)c(OC)cc34)c(F)c2)c(=O)n(-c2ccc(F)cc2)c1=O [Example 32, 1-Ethyl-3-(4-fluorophenyl)-6-methyl-2,4-dioxo-1,2,3,4-tetrahydropyrimidine-5-carboxylic acid [4-(6,7-dimethoxyquinolin-4-yloxy)-3-fluorophenyl]-amide]"
< 10 nM,10 to 100 nM,"CCOc1cc2nccc(Oc3ccc(NC(=O)c4cn(CC)c(=O)n(-c5ccc(F)cc5)c4=O)cc3F)c2cc1OCC [Example 33, 1-Ethyl-3-(4-fluorophenyl)-2,4-dioxo-1,2,3,4-tetrahydropyrimidine-5-carboxylic acid [4-(6,7-diethoxyquinolin-4-yloxy)-3-fluorophenyl]-amide]"
< 10 nM,10 to 100 nM,"COc1cc2nccc(Oc3ccc(NC(=O)c4cn(C(C)C)c(=O)n(-c5ccc(F)cc5)c4=O)nc3)c2cc1OC [Example 34, 3-(4-Fluorophenyl)-1-isopropyl-2,4-dioxo-1,2,3,4-tetrahydropyrimidine-5-carboxylic acid [5-(6,7-dimethoxyquinolin-4-yloxy)-pyridin-2-yl]-amide]"
< 10 nM,< 10 nM,"COc1cc2nccc(Oc3ccc(NC(=O)c4cn(CCO)c(=O)n(-c5ccc(F)cc5)c4=O)cc3F)c2cc1OC [Example 49, 3-(4-Fluorophenyl)-1-(2-hydroxyethyl)-2,4-dioxo-1,2,3,4-tetrahydropyrimidine-5-carboxylic acid [4-(6,7-dimethoxyquinolin-4-yloxy)-3-fluorophenyl]-amide]"
< 10 nM,< 10 nM,"COc1cc2nccc(Oc3ccc(NC(=O)c4cn(CCCO)c(=O)n(-c5ccc(F)cc5)c4=O)cc3F)c2cc1OC [Example 50, 3-(4-Fluorophenyl)-1-(3-hydroxypropyl)-2,4-dioxo-1,2,3,4-tetrahydropyrimidine-5-carboxylic acid [4-(6,7-dimethoxyquinolin-4-yloxy)-3-fluorophenyl]-amide]"
< 10 nM,< 10 nM,"COc1cc2nccc(Oc3ccc(NC(=O)c4cn(CCCO)c(=O)n(-c5ccc(F)cc5)c4=O)c(F)c3)c2cc1OC [Example 51, 3-(4-Fluorophenyl)-1-(3-hydroxypropyl)-2,4-dioxo-1,2,3,4-tetrahydropyrimidine-5-carboxylic acid [4-(6,7-dimethoxy-quinolin-4-yloxy)-2-fluoro-phenyl]-amide]"
< 10 nM,10 to 100 nM,"COc1cc2nccc(Oc3ccc(NC(=O)c4cn(CCCO)c(=O)n(-c5ccc(F)cc5)c4=O)cc3)c2cc1OC [Example 52, 3-(4-Fluorophenyl)-1-(3-hydroxypropyl)-2,4-dioxo-1,2,3,4-tetrahydropyrimidine-5-carboxylic acid [4-(6,7-dimethoxyquinolin-4-yloxy)phenyl]-amide]"
< 10 nM,< 10 nM,"COc1cc2nccc(Oc3ccc(NC(=O)c4cn(CCO)c(=O)n(-c5ccc(F)cc5)c4=O)cc3)c2cc1OC [Example 53, 3-(4-Fluorophenyl)-1-(2-hydroxyethyl)-2,4-dioxo-1,2,3,4-tetrahydropyrimidine-5-carboxylic acid [4-(6,7-dimethoxyquinolin-4-yloxy)phenyl]-amide]"
< 10 nM,10 to 100 nM,"COc1cc2nccc(Oc3ccc(NC(=O)c4cn(C[C@H](O)CO)c(=O)n(-c5ccc(F)cc5)c4=O)cc3F)c2cc1OC [Example 54, 1-((S)-2,3-Dihydroxypropyl)-3-(4-fluorophenyl)-2,4-dioxo-1,2,3,4-tetrahydropyrimidine-5-carboxylic acid [4-(6,7-dimethoxyquinolin-4-yloxy)-3-fluorophenyl]-amide]"
< 10 nM,101 to 1000 nM,"COc1cc2nccc(C(O)c3ccc(NC(=O)c4cn(C)c(=O)n(-c5ccc(F)cc5)c4=O)cc3F)c2cc1OC (centres unmarked) [Example 57, 3-(4-fluoro-phenyl)-1-methyl-2,4-dioxo-1,2,3,4-tetrahydro-pyrimidine-5-carboxylic acid {4-[(6,7-dimethoxy-quinolin-4-yl)-hydroxy-methyl]-3-fluoro-phenyl}-amide]"

SMILES,IC50 [1],IC50 [2]
"COc1cc2nccc(Oc3ccc(NC(=O)c4cn(C)c(=O)n(-c5ccc(F)cc5)c4=O)cc3)c2cc1OC [Example 18, 3-(4-Fluorophenyl)-1-methyl-2,4-dioxo-1,2,3,4-tetrahydropyrimidine-5-carboxylic acid [4-(6,7-dimethoxyquinolin-4-yloxy)-phenyl]-amide]",< 10 nM,10 to 100 nM
